Tests used:
[1] = system: Panc354; assay: Transwell migration assay towards CXCL12 (serum-free, B27); type: cell-based, human; details: 8 μm pore inserts, CXCL12 10 nM as chemoattractant, 30 min peptide pre-treatment, 24 h, B27 as serum substitute, dose-dependent, largest suppression, n = 3
Experimental: Migration assays were performed using inserts with 8μm pore size PET membranes (Corning, 353,097). Serum (10% FBS) or CXCl12 (10nM) was used in the companion plates as chemoattractant. After 24 h, invaded cells were fixed with 4% PFA and stained with DAPI (Merck, 10,236,276,001). Ten random 10 × fields were chosen and photographed (Keyence), and the pictures were quantified using ImageJ (RRID:SCR_003070).
The CXCL12 – CXCR4 axis regulates a bidirectional tumor-stromal signaling loop that ultimately promotes CSCs and miCSCs and their metastatic and chemoresistant phenotypes. Therefore, targeting CXCR4 may provide a significant improvement in the anticancer therapeutic efficacy. The Endogenous Peptide Inhibitor of CXCR4 (EPI-X4) is a natural antagonist of CXCR4, previously discovered in a human peptide library screen. […]
(§1) (A) Migration assays towards CXCL12 using Panc354 for EPI-X4 and its derivatives at depicted concentrations. […] (D) Quantifications of percent mesenchymal structures after 15 min and 6 h of CXCL12 treatment in MetPO1 cells. […] Intensity ratios (IR) calculated against control lane using ImageJ. […] Quantification of cell viability and representative pictures for clonogenic assays after treatment with JM#21 (10 μM), gemcitabine (Gem) for indicated concentrations as depicted in experimental design in MetPO1 cell line. […]

[2] = system: CD133+ CSCs in Panc354 and MetPO1 cells; assay: Flow cytometry for CD133 after combination treatment; type: cell-based, human; details: flow cytometry after 12 days of treatment, fold change
Experimental: For surface protein staining, 1 × 10^6 cells were resuspended in 100µl ice-cold FACS buffer supplemented with 6 µl Gamunex for 15 min at 4 °C. Cells were then incubated with CD133 (PE, Miltenyi Biotec, #130-113-108, RRID: AB_2725937) and CXCR4 (APC, eBioscience, #17-9999-42, RRID: AB_1724113) antibodies or an appropriate isotype control for 30 min at 4 °C. After a PBS wash, cells were resuspended in 500µl of ice-cold FACS buffer with DAPI in FACS tubes for analysis.
as §1
We then evaluated the therapeutic potential of JM#21. […] Since we have previously shown the role of CSCs in chemoresistance and the benefit of combination therapy for PDAC in vitro and in vivo[6],[38]–[40], we proceeded to evaluate the role of CSCs in the above-mentioned combination treatment and used flow cytometry to quantify CD133 + CSCs after 12 days of treatment (Fig. 5J, Supp. Figure 3I). […]

Row | Compound | suppression of CXCL12-induced migration [1] | CD133+ population in relapsed cells [2]
1 | EPI-X4: Endogenous Peptide Inhibitor of CXCR4, a natural antagonist of CXCR4 from a human peptide library screen (PQNLIKQNCELFEQLG; UniProt P02768 408-423, looked up, fragment) | approx. 50% | –
2 | Nc1ccn([C@@H]2O[C@H](CO)[C@@H](O)C2(F)F)c(=O)n1 [gemcitabine] | – | significant increase

— publication PMC13087252, “A CXCR4 targeting peptide delivered by silica nanoparticles eliminates migrating cancer stem cells in pancreatic ductal adenocarcinoma” (Scientific Reports, 2026)
